In this assay the target is Bifunctional dihydrofolate reductase-thymidylate synthase (Plasmodium falciparum K1, UniProt P13922). The experiment in a line: TBD: TBD. Set-up: species or system Isolate K1 / Thailand.

The structures appear in SMILES notation.

Sequence of Bifunctional dihydrofolate reductase-thymidylate synthase (P13922 whole entry): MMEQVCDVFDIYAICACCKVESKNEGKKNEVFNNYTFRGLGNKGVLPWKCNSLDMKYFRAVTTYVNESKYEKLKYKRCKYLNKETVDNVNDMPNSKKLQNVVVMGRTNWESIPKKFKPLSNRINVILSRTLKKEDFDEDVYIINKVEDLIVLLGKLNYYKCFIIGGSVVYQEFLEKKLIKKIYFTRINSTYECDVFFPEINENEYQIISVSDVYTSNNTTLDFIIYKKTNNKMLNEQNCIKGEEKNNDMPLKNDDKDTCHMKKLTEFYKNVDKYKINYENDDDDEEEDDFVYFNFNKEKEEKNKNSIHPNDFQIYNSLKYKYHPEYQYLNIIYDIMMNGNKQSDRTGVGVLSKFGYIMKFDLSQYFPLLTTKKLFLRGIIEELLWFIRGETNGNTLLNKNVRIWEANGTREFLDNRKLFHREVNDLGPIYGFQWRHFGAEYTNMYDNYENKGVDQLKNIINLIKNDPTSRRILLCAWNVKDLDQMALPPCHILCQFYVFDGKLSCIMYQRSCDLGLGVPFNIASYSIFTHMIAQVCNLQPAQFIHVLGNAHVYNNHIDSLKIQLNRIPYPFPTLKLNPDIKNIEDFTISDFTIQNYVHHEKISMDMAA

The compound `Nc1ncc(N2CCN(c3cccc(C4CCOCC4)c3)CC2)c(N)n1` yielded an IC50 of 1.1 nM.

As usually defined, the IC50 is the concentration that inhibits the measured activity by half.

Source of the values: ChEMBL document CHEMBL5729483, “Compositions and methods for treating infections” (2022).
